The first assay relates to phosphorylation of Serine-9 residue in Glycogen Synthase Kinase-3beta as surrogate marker of cellular PKB (Akt) activity. Nature of the assay: In vitro MDA-MB-468 human breast adenocarcinoma GSK-3 phosphorylation assay. The assay is classed as cell-based. The note with it: MDA-MB-468, 2 h, read-out: Cell pGSK3b IC50. An excerpt: This assay determines the ability of test compounds to inhibit phosphorylation of Serine-9 residue in Glycogen Synthase Kinase-3beta (GSK-313) as a surrogate marker of cellular PKB (Akt) activity, as assessed using Acumen Explorer Fluorescent Plate-Reader technology. A MDA-MB-468 human breast adenocarcinoma cell line (LGC Promochem, Teddington, Middlesex, UK, Catalogue No. HTB-132) was routinely maintained in Dulbecco's modified Eagle's growth medium (DMEM; Invitrogen Limited, Paisley, UK Catalogue No. 11966-025) containing 10% heat-inactivated foetal calf serum (FCS; Sigma, Poole, Dorset, UK, Catalogue No. F0392) and 1% L-glutamine (Gibco, Catalogue No. 25030-024) at 37° C. with 5% CO2 up to a confluency of 70-90%.
For the phosphorylation assay, the cells were detached from the culture flask using Trypsin-EDTA (Invitrogen Limited, Catalogue No. 25300-062) and seeded into the wells of a black transparent-bottom Corning Costar Polystyrene 96 well plate (Fisher Scientific UK, Loughborough, Leicestershire, UK; Catalogue No. 3904 and DPS-130-020K) at a density of 5000 cells per well in 100 μl of complete growth media. The cells were incubated overnight at 37° C. with 5% CO2 to allow them to adhere.
On day 2, the cells were treated with test compounds and incubated for 2 hours at 37° C. with 5% CO2. Test compounds were prepared as 10mM stock solutions in DMSO and dosed directly to required concentration into test wells using non-contact (acoustic dispensing of multiple 2.5 nl droplets directly into assay wells) ECHO dosing technology (Labcyte Inc Sunnyvale, Calif., USA). Each plate contained control wells without test compound.
20 μl of fixing buffer (Phosphate Buffered Saline (PBS) containing 10% formaldehyde; Sigma; Catalogue No. F1635) was then added to each well to give a final well concentration 1.6%. Plates were then incubated for 30 minutes at room temperature prior to the fixative being removed. Each well was washed once with 250 μl of PBS and then 50 μl PBS added to each well. PBS was then aspirated and cells permeabilised and blocked by incubating each well with 50 μl of permeabilisation/blocking buffer (PBS containing 0.5% Tween 20 (Sigma; Catalogue No. P5927) and 5% Marvel Milk Powder (Andrews Pharmacy Ltd, Macclesfield, Cheshire, UK; Catalogue No. APC100199)) for 1 hour at room temperature prior to staining.
Following removal of Perm/Block buffer, 50 μl of primary anti-phospho-GSK-3β antibody (Cell Signalling Technology (New England Biolabs (Uk) Ltd.), Hitchin, Hertfordshire, UK; Catalogue No.9336 diluted 1:400 in Blocking buffer (PBS containing 5% Marvel and 0.05% Tween/Polysorbate 20) was added to each well and incubated overnight at 4° C.
Each well was washed three times in 250 μl of wash buffer (PBS containing 0.05% polysorbate 20), and cells incubated for 1 hour at room temperature with 50 μl of secondary fluorescently-labelled anti-rabbit Alexa Fluor 488 antibody (Molecular Probes, Invitrogen Limited, Catalogue No. A11008) diluted 1:750 in blocking buffer. Plates were washed three times in 250 μl of wash buffer and stored containing 50 μl of PBS at 4° C. until required.
Plates were analysed using an Acumen Explorer Plate-reader to quantify level of fluorescent signal that represents quantity of phosphorylated-GSK-313.
IC50 calculation—IC50 is the concentration of compound required to give 50% effect over the range of activity affected by the compound, between maximum (no compound) and minimum (excess level of compound) response control data. IC50 values were determined by fitting background corrected, dose response assay data to a 4 parameter logistic curve fit equation model with the minimum response set to zero. This was done using an in-house developed algorithm within the Origin graphing software package (OriginLab Corporation, Northampton, Mass., USA). […]
For `COc1ccc(Oc2ccc3[nH]c(C4(N)CCN(c5ncnc6[nH]cnc56)CC4)nc3c2)cc1` [Example 63, 4-(5-(4-methoxyphenoxy)-1H-benzo[d]imidazol-2-yl)-1-(9H-purin-6-yl)piperidin-4-amine], the IC50 was > 960 nM. Same read-out and setting: then `NC1(c2nc3cc(SC(F)(F)F)ccc3[nH]2)CCN(c2ncnc3[nH]ccc23)CC1` [Example 65, 1-(7H-Pyrrolo[2,3-d]pyrimidin-4-yl)-4-(5-(trifluoromethylthio)-1H-benzo[d]imidazol-2-yl)piperidin-4-amine], with 420 nM.

Staying with this assay, now noted: MDA-MB-468 cells, 2 hours compound incubation, mean IC50, read-out: Cell pGSK3b IC50.
`NC1(c2nc3c(O)cccc3[nH]2)CCN(c2ncnc3[nH]ccc23)CC1` [Example 11, 2-[4-Amino-1-(7H-pyrrolo[2,3-d]pyrimidin-4-yl)-piperidin-4-yl]-1H-benzoimidazol-4-ol]: the IC50 was found to be 160 nM. Same read-out and setting: with `NC1(c2nc3ccc(Cl)cc3[nH]2)CCN(c2ncnc3[nH]ccc23)CC1` [Example 13, 4-(6-chloro-1H-benzoimidazol-2-yl)-1-(7H-pyrrolo[2,3-d]pyrimidin-4-yl)-piperidin-4-ylamine] the figure was 660 nM; with `NC1(c2nc3ccc(Cl)cc3[nH]2)CCN(c2ncnc3[nH]cnc23)CC1` [Example 21, 4-(6-chloro-1H-benzoimidazol-2-yl)-1-(9H-purin-6-yl)-piperidin-4-ylamine], 250 nM. The same measure, in the same setting: then `NC1(c2nc3ccc(Cl)cc3[nH]2)CCN(c2ncnc3[nH]ncc23)CC1` [Example 22, 4-(6-chloro-1H-benzoimidazol-2-yl)-1-(1H-pyrazolo[3,4-d]pyrimidin-4-yl)-piperidin-4-ylamine], with 770 nM. Consider `NCC1(c2nc3ccccc3[nH]2)CCN(c2ncnc3[nH]ccc23)CC1` [Example 34D, C-[4-(1H-Benzoimidazol-2-yl)-1-(7H-pyrrolo[2,3-d]pyrimidin-4-yl)-piperidin-4-yl]-methylamine], for which the half-maximal inhibitory concentration (IC50) was found to be 86 nM. On the same count and under the same terms, with `NC1(c2nc3c(-c4ccccc4)cccc3[nH]2)CCN(c2ncnc3[nH]ccc23)CC1` [Example 42, 4-(4-Phenyl-1H-benzoimidazol-2-yl)-1-(7H-pyrrolo[2,3-d]pyrimidin-4-yl)-piperidin-ylamine] the figure was < 31 nM; with `NCC1(c2nc3ccccc3[nH]2)CCN(c2ncnc3[nH]cnc23)CC1` [Example 44, (4-(1H-benzo[d]imidazol-2-yl)-1-(9H-purin-6-yl)piperidin-4-yl)methanamine], 120 nM; with `NCC1(c2nc3ccccc3[nH]2)CCN(c2ncnc3[nH]cc(Cl)c23)CC1` [Example 45, (4-(1H-benzo[d]imidazol-2-yl)-1-(5-chloro-7H-pyrrolo[2,3-d]pyrimidin-4-yl)piperidin-4-yl)methanamine], 87 nM. Regarding `NCC1(c2nc3ccccc3[nH]2)CCN(c2ncnc3[nH]nc(Br)c23)CC1` [Example 46, (4-(1H-benzo[d]imidazol-2-yl)-1-(3-bromo-1H-pyrazolo[3,4-d]pyrimidin-4-yl)piperidin-4-yl)methanamine], the IC50 turned out to be 97 nM. Take `Cc1c[nH]c2ncnc(N3CCC(CN)(c4nc5ccccc5[nH]4)CC3)c12` [Example 47, (4-(1H-benzo[d]imidazol-2-yl)-1-(5-methyl-7H-pyrrolo[2,3-d]pyrimidin-4-yl)piperidin-4-yl)methanamine]: the 50% inhibitory concentration (IC50) is 170 nM. As to `NCC1(c2nc3ccccc3[nH]2)CCN(c2ncnc3[nH]cc(Br)c23)CC1` [Example 48, (4-(1H-benzo[d]imidazol-2-yl)-1-(5-bromo-7H-pyrrolo[2,3-d]pyrimidin-4-yl)-piperidin-4-yl)methanamine], the IC50 is 210 nM.

On to `NC1(c2nc3ccc(C(F)(F)F)cc3[nH]2)CCN(c2ncnc3[nH]ccc23)CC1` [Example 50, 1-(7H-Pyrrolo[2,3-d]pyrimidin-4-yl)-4-[6-(trifluoromethyl)-1H-benzimidazol-2-yl]piperidin-4-amine], for which the half-inhibitory concentration (IC50) is 480 nM.

Regarding `Cc1ccc2nc(C3(N)CCN(c4ncnc5[nH]ccc45)CC3)[nH]c2c1C` [Example 51, 4-(6,7-dimethyl-1H-benzimidazol-2-yl)-1-(7H-pyrrolo[2,3-d]pyrimidin-4-yl)piperidin-4-amine], the half-maximal inhibitory concentration (IC50) turned out to be 800 nM. As to `NC1(c2nc3cc(F)c(Cl)cc3[nH]2)CCN(c2ncnc3[nH]ccc23)CC1` [Example 52, 4-(6-chloro-5-fluoro-1H-benzimidazol-2-yl)-1-(7H-pyrrolo[2,3-d]pyrimidin-4-yl)piperidin-4-amine], the IC50 turned out to be 1300 nM. On to `NC1(c2nc3cc(Cl)c(Cl)cc3[nH]2)CCN(c2ncnc3[nH]ccc23)CC1` [Example 53, 4-(5,6-Dichloro-1H-benzoimidazol-2-yl)-1-(7H-pyrrolo[2,3-d]pyrimidin-4-yl)-piperidin-4-ylamine], for which the concentration for half-maximal inhibition (IC50) is 1800 nM. As for `Cn1c(C2(N)CCN(c3ncnc4[nH]ccc34)CC2)nc2ccccc21` [Example 54, 4-(1-methylbenzimidazol-2-yl)-1-(7H-pyrrolo[2,3-d]pyrimidin-4-yl)piperidin-4-amine], the half-maximal inhibitory concentration (IC50) was > 2600 nM. Still for that read-out and setting: then `NC1(c2nc3cccnc3[nH]2)CCN(c2ncnc3[nH]ccc23)CC1` [Example 55, 4-(3H-imidazo[5,4-b]pyridin-2-yl)-1-(7H-pyrrolo[2,3-d]pyrimidin-4-yl)piperidin-4-amine], with 2900 nM; and `NC1(c2nc3cc(-n4ccnc4)ccc3[nH]2)CCN(c2ncnc3[nH]ccc23)CC1` [Example 56, 4-(5-imidazol-1-yl-1H-benzimidazol-2-yl)-1-(7H-pyrrolo[2,3-d]pyrimidin-4-yl)piperidin-4-amine], with 5500 nM. On to `Cc1cc2[nH]c(C3(N)CCN(c4ncnc5[nH]ccc45)CC3)nc2cc1Cl` [Example 57, 4-(5-chloro-6-methyl-1H-benzo[d]imidazol-2-yl)-1-(7H-pyrrolo[2,3-d]pyrimidin-4-yl)piperidin-4-amine], for which the half-maximal inhibitory concentration (IC50) is > 2100 nM. On the same count and under the same terms, with `Cc1cc(Cl)cc2nc(C3(N)CCN(c4ncnc5[nH]ccc45)CC3)[nH]c12` [Example 58, 4-(5-Chloro-7-methyl-1H-benzo[d]imidazol-2-yl)-1-(7H-pyrrolo[2,3-d]pyrimidin-4-yl)piperidin-4-amine] the figure was 1400 nM.

Turning to `CCN(CC)S(=O)(=O)c1ccc2[nH]c(C3(N)CCN(c4ncnc5[nH]ccc45)CC3)nc2c1` [Example 59, 2-(4-amino-1-(7H-pyrrolo[2,3-d]pyrimidin-4-yl)piperidin-4-yl)-N,N-diethyl-1H-benzo[d]imidazole-5-sulfonamide], the IC50 came to 1900 nM. For `CN1CCN(c2ccc3[nH]c(C4(N)CCN(c5ncnc6[nH]ccc56)CC4)nc3c2)CC1` [Example 60, 4-(5-(4-methylpiperazin-1-yl)-1H-benzo[d]imidazol-2-yl)-1-(7H-pyrrlo[2,3-d]pyrimidin-4-yl)piperidin-4-amine], the IC50 was found to be 8600 nM. In the case of `NC1(c2nc3cc(OC(F)(F)F)ccc3[nH]2)CCN(c2ncnc3[nH]ccc23)CC1` [Example 61, 1-(7H-Pyrrolo[2,3-d]pyrimidin-4-yl)-4-(5-(trifluoromethoxy)-1H-benzo[d]imidazol-2-yl)piperidin-4-amine], the concentration for half-maximal inhibition (IC50) amounted to 620 nM. As for `CC(C)c1ccc2[nH]c(C3(N)CCN(c4ncnc5[nH]ccc45)CC3)nc2c1` [Example 62, 4(5-isopropyl-1H-benzo[d]imidazol-2-yl)-1-(7H-pyrrolo[2,3-d]pyrimidin-4-yl)piperidin-4-amine], the IC50 stood at 580 nM. On to `COc1ccc(Oc2ccc3[nH]c(C4(N)CCN(c5ncnc6[nH]ccc56)CC4)nc3c2)cc1` [Example 64, 4-(5-(4-Methoxyphenoxy)-1H-benzo[d]imidazol-2-yl)-1-(7H-pyrrolo[2,3-d]pyrimidin-4-yl)piperidin-4-amine], for which the 50% inhibitory concentration (IC50) amounted to 380 nM.

For orientation: IC50 means the point on the concentration scale where inhibition reaches its midpoint.

Values taken from US20100093748A1, “SUBSTITUTED PIPERIDINES HAVING PROTEIN KINASE INHIBITING ACTIVITY” (ASTEX THERAPEUTICS LIMITED, priority 2006, published 2010).
